The text below walks through data of PMC10674780, “In Vitro and In Vivo Effects of Synthesis Novel Phenoxyacetamide Derivatives as Potent Apoptotic Inducer against HepG2 Cells through PARP-1 Inhibition” (Pharmaceuticals, 2023).

This assay concerns the target T1, PARP-1 (Homo sapiens, UniProt P09874).
T1 construct: gene PARP1
In words: PARP-1 inhibition assay kit (Cat No. […]). It is filed as biochemical.

T1 sequence (P09874 2-1014): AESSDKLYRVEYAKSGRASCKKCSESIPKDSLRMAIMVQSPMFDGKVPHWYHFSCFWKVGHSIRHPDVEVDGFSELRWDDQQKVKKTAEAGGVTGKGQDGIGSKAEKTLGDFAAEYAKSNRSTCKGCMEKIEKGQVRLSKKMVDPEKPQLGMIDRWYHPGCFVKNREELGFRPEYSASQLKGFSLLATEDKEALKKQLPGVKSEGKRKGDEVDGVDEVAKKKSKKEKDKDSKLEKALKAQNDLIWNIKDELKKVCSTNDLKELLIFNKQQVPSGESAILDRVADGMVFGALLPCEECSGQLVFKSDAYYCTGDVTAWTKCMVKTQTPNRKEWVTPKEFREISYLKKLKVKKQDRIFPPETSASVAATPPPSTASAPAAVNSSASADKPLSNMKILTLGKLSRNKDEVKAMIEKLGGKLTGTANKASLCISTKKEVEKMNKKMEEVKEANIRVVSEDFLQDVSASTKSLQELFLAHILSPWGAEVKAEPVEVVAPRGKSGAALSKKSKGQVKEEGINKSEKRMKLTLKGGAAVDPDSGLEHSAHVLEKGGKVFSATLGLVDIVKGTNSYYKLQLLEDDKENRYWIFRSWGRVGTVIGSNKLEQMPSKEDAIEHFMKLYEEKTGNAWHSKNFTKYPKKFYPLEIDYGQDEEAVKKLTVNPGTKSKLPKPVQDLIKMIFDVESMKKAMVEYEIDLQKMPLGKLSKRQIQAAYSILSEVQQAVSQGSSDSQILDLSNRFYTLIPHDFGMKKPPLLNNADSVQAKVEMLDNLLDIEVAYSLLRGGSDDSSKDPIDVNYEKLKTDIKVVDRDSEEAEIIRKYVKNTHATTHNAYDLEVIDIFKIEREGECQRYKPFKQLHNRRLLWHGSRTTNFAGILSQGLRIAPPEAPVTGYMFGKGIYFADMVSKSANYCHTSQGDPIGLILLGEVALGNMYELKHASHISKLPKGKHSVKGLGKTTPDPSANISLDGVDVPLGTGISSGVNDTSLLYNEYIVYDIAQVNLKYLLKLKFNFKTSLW

Broadly, the IC50 is the concentration that gives 50% inhibition. For the compound `NNC(=O)CNC(=O)COc1cc(Cl)c(Cl)cc1Cl` [I, N-(2-hydrazineyl-2-oxoethyl)-2-(2.4.5-trichlorophenoxy) acetamide], the IC50 came out at 1.52 nM.
